Results published in US20250195521A1 (Revolution Medicines, Inc., priority 2020, published 2025).

Tests used:
[1] = test system: NCI-H358 (K-Ras G12C); assay: CellTiter-Glo cell viability assay, NCI-H358; type: cell-based, human; conditions: Homo sapiens, NCI-H358, 120 h, 5-day treatment; read-out: H358 Cell Viability assay data (K-Ras G12C, IC50)
Procedure, shortened: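 Cells seeded, compound added directly to plates; day 5: plates to RT ~30 min, CellTiter-Glo luminescence; (sample/avg DMSO)*100; 4-parameter fit.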

[2] = target: KRAS G13D binding to BRAF RBD (Homo sapiens (Human), UniProt P01116+P62937, G13D); assay: Ras-Raf disruption/FRET/MOA assay, KRAS G13D; type: biochemical
Chain of KRAS G13D binding to BRAF RBD (P01116 other isoform, or with tags, fused parts or gaps G13D): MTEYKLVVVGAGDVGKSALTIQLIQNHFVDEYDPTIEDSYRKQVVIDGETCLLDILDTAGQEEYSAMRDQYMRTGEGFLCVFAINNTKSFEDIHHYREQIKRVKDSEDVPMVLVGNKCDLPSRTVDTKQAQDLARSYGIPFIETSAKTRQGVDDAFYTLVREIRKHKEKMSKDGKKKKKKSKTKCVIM
Chain of KRAS G13D binding to BRAF RBD (P62937 whole entry): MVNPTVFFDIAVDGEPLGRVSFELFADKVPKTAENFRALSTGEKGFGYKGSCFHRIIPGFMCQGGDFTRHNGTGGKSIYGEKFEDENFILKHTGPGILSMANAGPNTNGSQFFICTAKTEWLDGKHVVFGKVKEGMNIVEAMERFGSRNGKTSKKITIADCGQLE
Excerpt: (§1) Note—The following protocol describes a procedure for monitoring disruption of K-Ras G12C(GMP-PNP) binding to BRAF^RBD by a compound of the invention. This protocol may also be executed substituting other Ras proteins or nucleotides.
(§2) The purpose of this biochemical assay was to measure the ability of test compounds to facilitate ternary complex formation between a nucleotide-loaded K-Ras isoform and Cyclophilin A; the resulting ternary complex disrupts binding to a BRAF^RBD construct, inhibiting K-Ras signaling through a RAF effector. Data is reported as IC50 values.
(§3) Compound was present in plate wells as a 10-point 3-fold dilution series starting at a final concentration of 30 μM. After incubation at 25° C. for 3 hours, a mixture of Anti-His Eu—W1024 and anti-GST allophycocyanin was then added to assay sample wells at final concentrations of 10 nM and 50 nM, respectively, and the reaction incubated for an additional 1.5 hours. […] Compounds that facilitate disruption of a K-Ras: RAF complex were identified as those eliciting a decrease in the TR-FRET ratio relative to DMSO control wells.

[3] = target: NRAS G12C binding to BRAF RBD (Homo sapiens (Human), UniProt P01111+P62937, G12C); assay: Ras-Raf disruption/FRET/MOA assay, NRAS G12C; type: biochemical
Chain of NRAS G12C binding to BRAF RBD (P01111 whole entry G12C): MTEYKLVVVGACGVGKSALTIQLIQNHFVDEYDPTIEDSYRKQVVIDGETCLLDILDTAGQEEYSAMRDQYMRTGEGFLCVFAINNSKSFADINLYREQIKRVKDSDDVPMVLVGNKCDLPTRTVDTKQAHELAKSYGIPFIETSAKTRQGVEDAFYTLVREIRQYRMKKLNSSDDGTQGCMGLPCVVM
Chain of NRAS G12C binding to BRAF RBD (P62937 whole entry): as the sequence (P62937 whole entry) above
Excerpt: as §1, §2, §3

[4] = target: K-Ras G12C(GMP-PNP) binding to BRAF RBD (Homo sapiens (Human), UniProt P01116+P62937, G12C); assay: Disruption of BRAF RBD interaction with K-Ras (FRET / MOA assay), K-Ras G12C; type: biochemical; conditions: read-out: KRAS G12C FRET IC50
Chain of K-Ras G12C(GMP-PNP) binding to BRAF RBD (P01116 other isoform, or with tags, fused parts or gaps G12C): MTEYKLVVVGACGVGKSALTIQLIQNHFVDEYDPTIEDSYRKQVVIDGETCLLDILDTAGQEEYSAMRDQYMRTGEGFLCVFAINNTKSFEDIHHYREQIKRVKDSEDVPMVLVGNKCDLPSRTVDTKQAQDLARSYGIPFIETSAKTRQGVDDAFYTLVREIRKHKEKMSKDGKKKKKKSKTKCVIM
Chain of K-Ras G12C(GMP-PNP) binding to BRAF RBD (P62937 whole entry): as the sequence (P62937 whole entry) above
Procedure, shortened: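 First, test compounds in a 10-point 3-fold series (30 μM final top) were incubated for 3 hours at 25° C with nucleotide-loaded Ras, cyclophilin A and a BRAF RBD construct. Next, Eu anti-His and allophycocyanin anti-GST detection reagents were added for 1.5 hours. Finally, IC50s were derived from loss of TR-FRET signal against DMSO.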

[5] = test system: Capan-1 cells (K-Ras G12V); assay: CellTiter-Glo cell viability, Capan-1; type: cell-based, human; conditions: Homo sapiens, CAPAN-1, 120 h, K-Ras G12V, 5-day treatment; read-out: Capan-1 Cell Viability IC50
Procedure, shortened: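 Cells seeded, compound dispensed straight into wells, 5-day exposure. Plates brought to room temperature ~30 min, CellTiter-Glo luminescence measured. Normalized to DMSO (%), 4-parameter logistic fit.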

[6] = target: KRAS G12S binding to BRAF RBD (Homo sapiens (Human), UniProt P01116+P62937, G12S); assay: Ras-Raf disruption/FRET/MOA assay, KRAS G12S; type: biochemical
Chain of KRAS G12S binding to BRAF RBD (P01116 other isoform, or with tags, fused parts or gaps G12S): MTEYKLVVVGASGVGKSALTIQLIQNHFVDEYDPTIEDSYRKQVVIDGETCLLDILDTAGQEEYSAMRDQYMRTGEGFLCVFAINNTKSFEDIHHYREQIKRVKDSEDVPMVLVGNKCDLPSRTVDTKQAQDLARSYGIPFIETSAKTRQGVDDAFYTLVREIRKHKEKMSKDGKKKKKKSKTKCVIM
Chain of KRAS G12S binding to BRAF RBD (P62937 whole entry): as the sequence (P62937 whole entry) above
Excerpt: as §1, §2, §3

[7] = target: KRAS WT binding to BRAF RBD (Homo sapiens (Human), UniProt P01116+P62937); assay: Ras-Raf disruption/FRET/MOA assay, KRAS WT; type: biochemical
Chain of KRAS WT binding to BRAF RBD (P01116 other isoform, or with tags, fused parts or gaps): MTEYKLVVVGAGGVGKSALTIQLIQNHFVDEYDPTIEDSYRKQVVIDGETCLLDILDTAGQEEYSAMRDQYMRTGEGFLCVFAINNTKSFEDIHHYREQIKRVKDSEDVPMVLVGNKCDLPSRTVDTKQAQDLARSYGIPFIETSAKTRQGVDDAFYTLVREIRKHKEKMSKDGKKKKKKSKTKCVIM
Chain of KRAS WT binding to BRAF RBD (P62937 whole entry, the tested form may be a part): as the sequence (P62937 whole entry) above
Excerpt: Disruption of B-Raf Ras-binding Domain (BRAF^RBD) Interaction with K-Ras by Compounds of the Invention (also called a FRET assay or an MOA assay)
as §1, §2
as §3, with “In assay buffer containing 25 mM HEPES pH 7.3, 0.002% Tween20, 0.1% BSA, 100 mM NaCl and 5 mM MgCl2, tagless Cyclophilin A, His6-K-Ras-GMPPNP, and GST-BRAF^RBD were combined in a 384-well assay plate at final concentrations of 25 μM, 12.5 nM and 50 nM, respectively. Compound was” for “Compound was”

[8] = test system: K-Ras G12C (NCI-H358 cells); assay: Potency assay: pERK in NCI-H358 cells; type: cell-based, human; conditions: Homo sapiens; NCI-H358 cells, 4 hours; read-out: pERK EC50 (H358 KRAS G12C)
Procedure, shortened: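 Cells plated the day before were exposed for 4 h at 37° C, 5% CO2 to a 10-point, 3-fold DMSO dilution series (10 mM top stock), in duplicate. Phospho-ERK was read by AlphaLISA SureFire Ultra or by In-Cell Western with DRAQ5 DNA stain, and IC50 came from a 4-parameter sigmoidal fit.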

Row | Structure (SMILES) | IC50 [1] [nM] | IC50 [2] [nM] | IC50 [3] [nM] | IC50 [4] [nM] | IC50 [5] [nM] | IC50 [6] [nM] | IC50 [7] [nM] | EC50 [8] [nM]
1 | C=CC(=O)N1CC[C@H](C(=O)N(C)[C@H](C(=O)N[C@H]2Cc3cc(O)cc(c3)-c3ccc4c(c3)c(c(-c3cccc(CN(C)C)c3)n4CC)CC(C)(C)COC(=O)[C@@H]3CCCN(N3)C2=O)C(C)C)C1 [Compound A106] | 100 to 1000 | > 10000 | 1000 to 10000 |  |  |  |  | 
2 | C=CC(=O)N1CC[C@H](C(=O)N(C)[C@H](C(=O)N[C@H]2Cc3cccc(c3)-c3ccc4c(c3)c(c(-c3cccnc3[C@H](C)OC)n4CC)CC(C)(C)COC(=O)[C@@H]3CCCN(N3)C2=O)C(C)C)C1 [Compound A114] |  | > 10000 | > 10000 | > 10000 |  |  |  | 
3 | C=CC(=O)N1CC[C@H](C(=O)N(C)[C@H](C(=O)N[C@H]2Cc3cc(O)cc(c3)-c3ccc4c(c3)c(c(-c3cccnc3COC)n4CC)CC(C)(C)COC(=O)[C@@H]3CCCN(N3)C2=O)C(C)C)C1 [Compound A137] | > 10000 | > 10000 | 100 to 1000 |  |  |  |  | 
4 | CCn1c(-c2cccnc2COC)c2c3cc(ccc31)-c1cc(C)cc(c1)C[C@H](NC(=O)[C@@H](C(C)C)N(C)C(=O)[C@H]1CCN(C(=O)C#CCN(C)C)C1)C(=O)N1CCC[C@H](N1)C(=O)OCC(C)(C)C2 [Compound A156] |  | 1000 to 10000 | 100 to 1000 |  |  |  |  | 
5 | CCn1c(-c2cccnc2COC)c2c3cc(ccc31)-c1cc(O)cc(c1)C[C@H](NC(=O)[C@H](C(C)C)N(C)C(=O)[C@H]1CCN(C(=O)/C=C\CN(C)C)C1)C(=O)N1CCC[C@H](N1)C(=O)OCC(C)(C)C2 [Compound A161] |  | 1000 to 10000 | 100 to 1000 |  |  |  |  | 
6 | CC#CC(=O)N1CC[C@H](C(=O)N(C)[C@H](C(=O)N[C@H]2Cc3cc(O)cc(c3)-c3ccc4c(c3)c(c(-c3cncnc3)n4CC)CC(C)(C)COC(=O)[C@@H]3CCCN(N3)C2=O)C(C)C)C1 [Compound A169] | 100 to 1000 | > 10000 | 100 to 1000 | 100 to 1000 |  |  |  | 
7 | CCn1c(-c2cnccc2COC)c2c3cc(ccc31)-c1cc(O)cc(c1)C[C@H](NC(=O)[C@H](C(C)C)N(C)C(=O)O[C@H]1CCOC1)C(=O)N1CCC[C@H](N1)C(=O)OCC(C)(C)C2 [Compound A260] | < 10 |  |  | 10 to 100 | 1000 to 10000 | 10 to 100 | 10 to 100 | 
8 | C/C=C/S(=O)(=O)N1CC[C@H](C(=O)N(C)[C@H](C(=O)N[C@H]2Cc3cc(O)cc(c3)-c3ccc4c(c3)c(c(-c3ccncc3[C@H](C)OC)n4CC)CC(C)(C)COC(=O)[C@@H]3CCCN(N3)C2=O)C(C)C)C1 [Compound A280] | 10 to 100 | 100 to 1000 | 100 to 1000 | 10 to 100 |  |  | 10 to 100 | < 5000
9 | C=CC(=O)N1CC[C@H](C(=O)N(C)[C@H](C(=O)NC2C[C@@H]3CN(CCO3)c3ccc4c(c3)c(c(-c3cccnc3COC)n4CC)CC(C)(C)COC(=O)[C@@H]3CCCN(N3)C2=O)C(C)C)C1 (stereo partly drawn) [Compound A318] | > 10000 | > 10000 | > 10000 | > 10000 |  |  |  | 
10 | CCn1c(-c2cccnc2[C@H](C)OC)c2c3cc(ccc31)-c1csc(n1)C[C@H](NC(=O)[C@H](C(C)C)N(C)C(=O)N1CC(C#N)C1)C(=O)N1CCC[C@H](N1)C(=O)OCC(C)(C)C2 [Compound A382] | < 10 |  |  |  |  | 10 to 100 | 10 to 100 | 
11 | CCn1c(-c2cccnc2[C@H](C)OC)c2c3cc(ccc31)-c1cc(cc(C(F)F)c1)C[C@H](NC(=O)[C@@H](COC1CN(C(=O)C#CC(C)(C)N(C)C)C1)C(C)C)C(=O)N1CCC[C@H](N1)C(=O)OCC(C)(C)C2 [Compound A404] |  | > 10000 | 100 to 1000 |  |  |  |  | 
12 | C=CC(=O)N1CC[C@H](C(=O)N(C)[C@H](C(=O)N[C@H]2Cc3csc(n3)-c3ccc4c(c3)c(c(-c3cc(N5CCN(C)CC5)cnc3[C@H](C)OC)n4CC(C)(F)F)CC(C)(C)COC(=O)[C@@H]3CCCN(N3)C2=O)C(C)C)C1 [Compound A410] | < 10 | 100 to 1000 | 10 to 100 | 10 to 100 |  |  |  | < 5000
13 | CCn1c(-c2cccnc2[C@H](C)OC)c2c3cc(ccc31)-c1cc(C(F)F)cc(n1)C[C@H](NC(=O)[C@H](C1CCCC1)N(C)C(=O)[C@H]1CCN(C(=O)C#CC(C)(C)N3CCC3)C1)C(=O)N1CCC[C@H](N1)C(=O)OCC(C)(C)C2 [Compound A456] | < 10 | 1000 to 10000 | 10 to 100 | 10 to 100 |  |  |  | 
14 | CCn1c(-c2cccnc2[C@H](C)OC)c2c3cc(ccc31)-c1cccc(c1)C[C@H](NC(=O)[C@H](C(C)C)N(C)C(=O)[C@H]1CCN(C(=O)C#CC3CCO3)C1)C(=O)N1CC(Br)C[C@H](N1)C(=O)OCC(C)(C)C2 (stereo partly drawn) [Compound A508] |  | > 10000 | 100 to 1000 |  |  |  |  | 
15 | CC#CC(=O)N1CC[C@]2(CCC([C@H](C(=O)N[C@H]3Cc4nc(cs4)-c4ccc5c(c4)c(c(-c4cccnc4[C@H](C)OC)n5CC)CC(C)(C)COC(=O)[C@@H]4CCCN(N4)C3=O)C(C)C)C2=O)C1 (stereo partly drawn) [Compound A511] | < 10 | 1000 to 10000 | 100 to 1000 | 100 to 1000 |  |  |  | 
16 | CCn1c(-c2cccnc2[C@H](C)OC)c2c3cc(ccc31)-c1cccc(c1)C[C@H](NC(=O)[C@H](C(C)C)N(C)C(=O)[C@H]1CCN(C(=O)C#C[C@@H]3CC(F)(F)CN3C)C1)C(=O)N1CCC[C@H](N1)C(=O)OCC(C)(C)C2 [Compound A526] | < 10 | > 10000 | 10 to 100 | 10 to 100 |  |  |  | 
17 | CCn1c(-c2cc(C3CCN(C)CC3)cnc2[C@H](C)OC)c2c3cc(ccc31)-c1cc(O)cc(c1)C[C@H](NC(=O)[C@H](C(C)C)N(C)C(=O)[C@@H]1OCC[C@@H]1c1ccccc1)C(=O)N1CCC[C@H](N1)C(=O)OCC(C)(C)C2 [Compound A577] | < 10 |  |  |  |  | 10 to 100 |  | < 5000
18 | CCn1c(-c2cc(N3CCN(C)CC3)cnc2[C@H](C)OC)c2c3cc(ccc31)-c1cc(O)cc(c1)C[C@H](NC(=O)[C@H](C(C)C)N(C)C(=O)[C@@H]1OCC[C@@H]1c1ccccc1)C(=O)N1CCC[C@H](N1)C(=O)OCC(C)(C)C2 [Compound A594] | < 10 |  |  | 10 to 100 |  |  | 10 to 100 | < 5000
